# Measured values reported in patent publication US20220264878A1, “HERBICIDAL COMPOSITION CONTAINING R-TYPE PYRIDYLOXY CARBOXYLIC ACID DERIVATIVE AND USE THEREOF” (Qingdao Kingagroot Chemical Compound Co., Ltd., priority 2019, published 2022).
# Columns and labels:
# Conyza Canadensis = experiment: Post-emergence foliage spray, pot culture, fresh weight inhibition (Tables 151-206; 20 days); assay type: in vivo; conditions: 20 days after treatment
# How it was run: (§1)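 Field-collected weeds grown in pots in a greenhouse (20-30° C., natural light, 57-72% RH), 15 per pot, 3 pots × 4 replicates. Single foliar spray at 4-5 leaves (grasses) or 5-6 leaves (broadleaf) with acetone/0.1% Tween-80 dilutions at 450 kg/ha, 0.3 MPa. Above-ground fresh weight inhibition versus solvent blank at 20 days.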
# Veronica didyma = experiment: as above; assay type: in vivo; conditions: 20 days after treatment
# How it was run: as §1
structure (smiles),measurement,setting,value
C[C@@H](Oc1nc(F)c(Cl)c(N)c1Cl)C(=O)OCC1CCCO1 (stereo partly shown) [Compound A2],Control effect (%) of A applied alone in corresponding dose,Conyza Canadensis; A alone 75 g a.i./ha,38.1%
same,Control effect (%) of A applied alone in corresponding dose,Conyza Canadensis; A alone 150 g a.i./ha,54.4%
same,Control effect (%) of A applied alone in corresponding dose,Veronica didyma; A alone 75 g a.i./ha,19.7%
same,Control effect (%) of A applied alone in corresponding dose,Veronica didyma; A alone 150 g a.i./ha,36.6%
